Results: patent US5480885A, “Ergoline derivatives of 1-propinylamine, a process for the manufacture thereof and the use thereof for medicaments” (priority 1991, dated 1996)
pEC50: −log10 of the molar value. Entries after “also recorded” stand apart in the source; their conditions may differ. Read-outs that look alike come from different tables or passages of the source.

Assays:
[1] = system: pentobarbital-anesthetized normotensive rats; assay: blood pressure and heart rate in pentobarbital-anesthetized normotensive rats; type: in vivo, rat; details: 450 μg/kg i.v.
[2] = molecular target: T1, isolated rabbit thoracic aorta (serotonin) (Oryctolagus cuniculus, UniProt G1SYA7)
T1 construct: isolated rabbit thoracic aorta; from tissue; host or cells: isolated rabbit thoracic aorta

pupil = assay: dilatation of the pupil in mice (Pulewka); type: in vivo; details: in words
[3] = system: isolated rabbit thoracic aorta; assay: constriction of the isolated rabbit thoracic aorta
pithed rats = assay: vasoconstriction / diastolic pressure in pithed rats (Gillespie); type: in vivo, rat; details: 450 μg/kg i.v.; in words
[4] = acute toxicity in mice (Miller and Tainter); details: mouse, in vivo, intravenous
From the text: Exptl. Biol. Med. 57, 261 (1944).

5-HT2 receptors = molecular target: T2, 5-HT2 receptors (Mus musculus, UniProt P35363); assay: head twitch response caused by the compound in mice; type: in vivo
T2 construct: The head twitch model in mice; from tissue; host or cells: living mice (central nervous system)
From the text: The head twitch model in mice represents an experimental model for determining the hallucinogenic action of a compound (the method was described by Handley and Singh, Br.J.Pharmacol., 86, 297-303, 1985). It is believed that the response is conveyed via the 5-HT2 receptors.

isolated rat uterus = assay: uterotonic activity (isolated rat uterus); details: in words

T1 sequence (G1SYA7 entry or part of it): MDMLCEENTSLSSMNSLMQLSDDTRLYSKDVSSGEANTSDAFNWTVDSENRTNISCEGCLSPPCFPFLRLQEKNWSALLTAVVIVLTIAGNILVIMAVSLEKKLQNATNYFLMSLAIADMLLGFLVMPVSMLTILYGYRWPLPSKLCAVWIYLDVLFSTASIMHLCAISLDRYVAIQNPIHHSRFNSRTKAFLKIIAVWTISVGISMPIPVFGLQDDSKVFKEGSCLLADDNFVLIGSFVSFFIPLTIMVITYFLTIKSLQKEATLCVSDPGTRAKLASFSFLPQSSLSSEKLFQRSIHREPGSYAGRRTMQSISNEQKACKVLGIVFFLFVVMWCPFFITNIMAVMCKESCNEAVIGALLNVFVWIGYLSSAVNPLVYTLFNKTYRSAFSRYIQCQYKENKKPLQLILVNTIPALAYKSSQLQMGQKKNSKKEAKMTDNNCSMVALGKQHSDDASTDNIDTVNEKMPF
T2 sequence (P35363 whole entry): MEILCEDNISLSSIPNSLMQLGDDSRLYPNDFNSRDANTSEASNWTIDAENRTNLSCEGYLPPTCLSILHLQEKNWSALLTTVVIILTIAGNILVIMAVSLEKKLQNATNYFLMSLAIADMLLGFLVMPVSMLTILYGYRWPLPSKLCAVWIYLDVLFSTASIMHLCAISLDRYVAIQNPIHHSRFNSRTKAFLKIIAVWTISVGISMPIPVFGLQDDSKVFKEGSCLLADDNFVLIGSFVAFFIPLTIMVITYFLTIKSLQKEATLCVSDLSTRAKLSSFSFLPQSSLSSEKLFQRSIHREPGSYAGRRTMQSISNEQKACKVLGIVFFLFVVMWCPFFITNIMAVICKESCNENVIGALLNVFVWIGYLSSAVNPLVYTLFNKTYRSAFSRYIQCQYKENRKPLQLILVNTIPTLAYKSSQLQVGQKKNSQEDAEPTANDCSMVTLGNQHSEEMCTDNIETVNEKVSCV

For C#CCN(C)C(=O)[C@@H]1C=C2c3cccc4[nH]cc(c34)C[C@H]2N(C)C1 [Example 4, 9,10-Didehydro-N-methyl-N-(2'-propinyl)-6-methylergoline-8β-carboxamide], the respiratory troubles [1] was “respiratory troubles could be perceived”, the “effect on carotid artery pressure” value ([1]; in words) was “statistically non-significant changes in carotid artery pressure” and the “reduction in heart rate” value ([1]; vs initial level) was 20%. The “mode of inhibition of serotonin constriction” value ([2]; in words) was “the antagonism was of competitive nature”, the serotonin-antagonistic activity ([2]; inactivated α1-adrenergic receptors, 0.01 to 0.3 μM) was “showed a serotonin-antagonistic activity” and the “effect on maximum activity of serotonin” value ([2]; inactivated α1-adrenergic receptors, higher doses) was “noticeable decrease of the maximum activity of serotonin”. For the same compound, the Kb ([2]; vs serotonin, inactivated α1-adrenergic receptors, smaller doses (0.1 μM), read-out: pA2 (converted)) was 4.27 nM, the “dilatation of the pupil” value (pupil; dose-dependent, dose not given) was “dose-dependent dilatation of the pupil” and the “behavioural effects in mice” value (pupil) was “an increased activity, tremor and piloerection”. The “receptors responsible for vasoconstriction” value ([3]; 0.39 μM (EC50)) was “predominantly the result of the activation of α1 -adrenergic receptors and to a lesser extent of the activation of 5-HT2 receptors”, the EC50 ([3]; Oryctolagus cuniculus, constriction of the isolated rabbit thoracic aorta, read-out: pD2 (converted)) was 389 nM and the pEC50 ([3]; Oryctolagus cuniculus, vasoconstriction, read-out: EC50) was 6.41. For the same compound, the “constriction of the isolated rabbit thoracic aorta” value ([3]; in words) was “caused a constriction of the isolated rabbit thoracic aorta”, the “intrinsic activity, aorta constriction” value ([3]; in words, vs serotonin) was “comparable to that of serotonin” and the peripheral vasoconstriction (pithed rats) was “transient, yet extraordinarily strong peripheric vasoconstriction”. For the same compound, the LD50 [4] was 55 mg/kg, the “head twitch response caused by compound” value (5-HT2 receptors; 0.125 to 4 mg/kg i.p., in words) was “caused a head twitch response in mice; also recorded: at higher doses the activity decreased (autoinhibitory effect)” and the “dose of maximum head twitch activity” value (5-HT2 receptors; i.p.) was 1 mg/kg. The uterotonic activity (isolated rat uterus) was “lesser than the one of methylergometrine maleate”.
